The values below come from PubChem BioAssay AID602211 (Sanford-Burnham Center for Chemical Genomics, 2012).

The test system of this assay is H9c2 cardiomyocytes, H2O2 protection, ATPLite viability, 2 h. The experiment in a line: H2O2-induced H9c2 cell death suppression – ATPLite luminescence, set 2, dose response (AID 602211).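 Note: potency is for protection so actives keep ATP signal up against peroxide killing.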

Calls of active or inactive are those of the source.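 Rule for the calls: active = mean IC50 at or below 10 µM; inactive = the rest.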 Where only a bound is given, the exact number is not on record here.

`COc1ccc(C(=O)Nc2nc(-c3ccccn3)cs2)cc1S(=O)(=O)N1CCOCC1`: the IC50 was 11.9 µM (inactive).

In the case of `COc1ccc2cc3cc(C(=O)NCCc4ccc(OC)c(OC)c4)oc3nc2c1`, the 50% inhibitory concentration (IC50) is 4.28 µM.

Consider `CCCc1cc(N2CCN(C(=O)c3ccco3)CC2)n2c(nc3ccccc32)c1C#N`, for which the IC50 is > 79 µM (inactive).

Consider `CCc1nc2ccc(C(=O)Nc3cc(-c4ccccc4)ccc3OC)cn2c1N(C)Cc1nccs1`, for which the half-maximal inhibitory concentration (IC50) is 5.95 µM.

On to `COc1ccc(-c2cc(-c3ccc(O)cc3)nc(N)c2C#N)cc1OC`, for which the IC50 is > 79 µM (inactive).

Regarding `O=CNc1cc(-c2ccc(C(=O)NC3CC3)cc2)cn2c(-c3ccccc3)cnc12`, the IC50 is 10.3 µM (inactive).

Consider `CCOc1ccccc1Nc1nnc(SCc2nnc(-c3cc(OC)c(OC)c(OC)c3)o2)s1`, for which the IC50 is 9.01 µM.

For `CC(=O)NCCNc1nc2c(-c3ccccc3)nnn2c2ccccc12`, the IC50 is 2.56 µM.

Turning to `O=S(=O)(c1ccccc1)N1CCN(c2nc(-c3cccnc3)nc3ccccc23)CC1`, the concentration for half-maximal inhibition (IC50) was 4.54 µM.

For `COc1ccc(-c2cnc3c(NC=O)cc(-c4cccc(NS(C)(=O)=O)c4)cn23)cc1OC`, the half-maximal inhibitory concentration (IC50) was 5.59 µM.

With `Cc1nc(N2CCN(c3ccccn3)CC2)c2c(C)c(C(=O)Nc3ccc(F)cc3)sc2n1`, the IC50 was 4.36 µM.

On to `CC(C)(C)NC(=O)c1cc(NC(=O)c2cccs2)cc(NC(=O)c2cccs2)c1`, for which the IC50 is 8.4 µM.

With `COc1cc(OC)cc(-c2cc3nc(C)c(CCC(=O)Nc4nc(C)cs4)c(C)n3n2)c1`, the IC50 was 4.8 µM.

`COc1cc(-c2cc(NC=O)c3ncc(-c4ccc(C(C)=O)cc4)n3c2)cc(OC)c1OC`: the half-maximal inhibitory concentration (IC50) was 3.51 µM.

As for `COc1cc(/C=C(\C#N)C(=O)Nc2ccccc2F)ccc1OCCN1CCOCC1`, the IC50 was 15.9 µM (inactive).

Consider `Cn1c2ccccc2c2cc(/C=N/NC(=O)c3cc(O)ccc3O)ccc21`, for which the IC50 was > 79 µM (inactive).

`COc1ccc(-c2cc(C(=O)N(C)Cc3ccccc3F)c3ccccc3n2)cc1OC`: the IC50 was > 79 µM (inactive).

As for `O=C1N[C@H](Cc2ccccc2)COC(=O)[C@@H](Cc2ccc(F)cc2)C/C=C\C[C@H]1CC(=O)N(CCO)Cc1ccccc1`, the IC50 was > 79 µM (inactive).

For the molecule `CC(=O)c1ccc(-c2[nH]c3ccccc3c2CCN2C(=O)c3ccccc3C2=O)cc1`, the IC50 is 9.73 µM.

For the molecule `COc1cc(-c2cc(C(=O)Nc3cccc(C(C)=O)c3)c3ccccc3n2)cc(OC)c1OC`, the IC50 was 3.59 µM.

Turning to `CCn1cc(C(=O)Nc2cccc(NC(C)=O)c2)c2cc(OC)c(OC)cc2c1=O`, the IC50 was 16.1 µM (inactive).

`COc1ccc(-c2cc(-c3nnc(COC(=O)c4ccncc4)o3)c3ccccc3n2)cc1OC`: the IC50 is 5.89 µM.

On to `CCn1nc(C(=O)Nc2nc(-c3ccccn3)cs2)c2ccccc2c1=O`, for which the IC50 was 3.37 µM.

Consider `CCN(C[C@H]1N[C@@](Cc2ccccc2)(C(=O)OC)[C@H]2C(=O)N(C)C(=O)[C@@H]12)S(=O)(=O)c1ccc(OC)cc1`, for which the IC50 is 21.1 µM (inactive).

For `COc1ccc(-c2nnc(-c3cc(OC)c(OC)c(OC)c3)o2)cc1OC`, the IC50 is 43.9 µM (inactive).

For `COc1ccc(-c2cc(NC=O)c3ncc(-c4cccc(C(C)=O)c4)n3c2)cc1`, the IC50 is > 79 µM (inactive).

For the molecule `CCC(c1nnnn1Cc1ccccc1)N1CCC(n2c(=O)[nH]c3ccccc32)CC1` (centres undefined), the IC50 is > 79 µM (inactive).

As to `C[C@H](CO)N1C[C@H](C)[C@@H](CN(C)S(=O)(=O)c2ccc(F)cc2)Oc2ccc(NC(=O)Nc3ccc4c(c3)OCO4)cc2C1=O`, the IC50 is 10.1 µM (inactive).

For `COc1ccc(COc2cc(-c3cccc(OC)c3)nc3ccc(NC(=O)c4ccc(OC)cc4)cc23)cc1`, the IC50 is 2.42 µM.

With `CN1CCc2nc3ccccc3c(C(=O)OCC(=O)N(CCC#N)c3ccccc3)c2C1`, the IC50 was 22.7 µM (inactive).

Regarding `CCCCn1nc(NC(=O)c2cccs2)c2cc3cc(OC)ccc3nc21`, the IC50 is 3.61 µM.

Consider `COc1cccc(-c2nn3c(-c4ccccn4)nnc3s2)c1`, for which the half-maximal inhibitory concentration (IC50) is 6.65 µM.

Take `COc1ccc(-c2cc(C(F)(F)F)n3nc(C(=O)N4CCN(C(=O)c5ccco5)CC4)cc3n2)cc1`: the half-inhibitory concentration (IC50) is 9.56 µM.

In the case of `COc1cccc(-c2cnc3c(NC=O)cc(-c4cccc(NC(C)=O)c4)cn23)c1`, the IC50 was 5.98 µM.

On to `Nc1cc2[nH]c(=O)c3ccccc3c2cc1[N+](=O)[O-]`, for which the IC50 is 5.96 µM.

In the case of `Cc1[nH]c2ccccc2c1/C=N/NC(=O)c1cc(-c2ccccc2)n[nH]1`, the IC50 is 2.89 µM.

Regarding `Cc1nn2c(-c3cccc(NC(=O)c4ccco4)c3)nnc2c2ccccc12`, the IC50 was 1.66 µM.

`CCN(CC)S(=O)(=O)c1ccc(N2CCOCC2)c(NC(=O)c2cc(-c3ccccn3)nc3ccccc23)c1`: the IC50 is 1.34 µM.

For `O=C(Nc1ccccc1)c1nc[nH]c1C(=O)NCCNC(=O)c1[nH]cnc1C(=O)Nc1ccccc1`, the IC50 was 0.668 µM.

For the molecule `CC(C)(C)OC(=O)CNC(=O)c1[nH]cnc1C(=O)NCC(=O)OCc1ccccc1`, the IC50 was 0.747 µM.

Consider `Cc1nc(SCC(=O)N2CCN(c3ccccc3)CC2)c2oc3ccccc3c2n1`, for which the IC50 is 3.43 µM.

As to `COc1ccc(C(C(=O)NCc2ccccc2)N(Cc2cccs2)C(=O)c2cnccn2)cc1` (centres undefined), the IC50 is 25 µM (inactive).

`COc1ccc(C(C(=O)NC2CCCC2)N(C(=O)c2snc(C(N)=O)c2N)c2cccc(O)c2)cc1` (centres undefined): the IC50 is 12.7 µM (inactive).

On to `CC(=O)c1ccc(N2CCN(C(=O)C3CCCN(c4ncnc5c4nc4n5CCCCC4)C3)CC2)cc1` (centres undefined), for which the IC50 was 2.68 µM.

For the molecule `COc1ccc(NC(=O)c2cc(-c3ccc(OC)c(OC)c3)nc3ccccc23)c(OC)c1`, the IC50 is 8.09 µM.

Take `O=C(NC1CCCCC1)C(c1ccc2ncccc2c1)N(Cc1ccccc1)C(=O)c1ccc2c(c1)OCCO2` (centres undefined): the IC50 was 5.54 µM.

Turning to `Cc1ccccc1NP(=O)(Oc1ccccc1F)Oc1ccccc1F`, the IC50 was > 79 µM (inactive).

Consider `O=C(Nc1cccc(Cl)c1)c1nc[nH]c1C(=O)NCCCNC(=O)c1[nH]cnc1C(=O)Nc1cccc(Cl)c1`, for which the IC50 is 1.36 µM.

On to `CN(C(=O)c1sc2nc(N3CCOCC3)c3c(c2c1N)CCCC3)c1ccccc1`, for which the half-inhibitory concentration (IC50) was 2.64 µM.

As for `NC(=O)c1cc2ccccc2o/c1=N\NC(=O)c1ccc(F)cc1`, the IC50 is 4.67 µM.

Take `O=C(c1cc2nc(-c3ccccc3)cc(-c3ccccc3)n2n1)N1CCN(C(=O)c2ccco2)CC1`: the IC50 is 1.25 µM.

As for `CC(=O)Nc1ccc(S(=O)(=O)N(Cc2ccco2)Cc2cc3ccccc3[nH]c2=O)cc1`, the IC50 is > 79 µM (inactive).

Turning to `N#C/C(=C\c1ccc(-c2cccc([N+](=O)[O-])c2)o1)C(=O)NCCN1CCOCC1`, the IC50 is > 79 µM (inactive).

As to `C[C@@H](NC(=O)c1nc[nH]c1C(=O)NCC(=O)OCc1ccccc1)c1ccccc1`, the IC50 is 51.6 µM (inactive).

Turning to `COc1cc(/C=c2\s/c(=C(/C#N)C(=O)N3CCCC3)n(-c3ccccc3)c2=O)ccc1O`, the concentration for half-maximal inhibition (IC50) is 3.2 µM.

As for `COc1ccc(-c2cc3nc(-c4ccccc4)cc(N4CCN(C(=O)c5ccoc5)CC4)n3n2)cc1`, the IC50 is 4.91 µM.

As to `C[C@H]1Cn2cnc(C(=O)N[C@@H](Cc3c[nH]c4ccccc34)C(=O)OC(C)(C)C)c2C(=O)N1`, the IC50 is 24.1 µM (inactive).

Regarding `Cc1c(OCC(=O)NCCN2CCOCC2)ccc2c1oc(=O)c1ccccc12`, the IC50 is 5.33 µM.

`COc1ccc(-n2nc(C(=O)NCC(=O)Nc3cc(OC)c(OC)c(OC)c3)c3ccccc3c2=O)cc1Cl`: the IC50 was 3.02 µM.
